Like-named read-outs stand apart in the source and are kept apart here. *1 amine or outer side, *2 acyl side, *3 side chain or, on linkers, in order; H or OH if unused. Where a SMILES comes first, the peptide text is derived from it. Bridges are numbered along the chain shown (N, C = ends). [ ]: non-standard residue; d: D form. The star is where a group is joined. hPhe(3,5-F2-4-CF3) = N[C@@H](CCc1cc(F)c(C(F)(F)F)c(F)c1)C(=O)O; hPhe(3-Cl-4-CF3) = N[C@@H](CCc1ccc(C(F)(F)F)c(Cl)c1)C(=O)O; NPrPhe(4-CF3) = CCCN[C@@H](Cc1ccc(C(F)(F)F)cc1)C(=O)O; NEtPhe(4-Me) = CCN[C@@H](Cc1ccc(C)cc1)C(=O)O; X13 = O=C([C@@H](N[*:1])C1CC(F)(F)C1)[*:2]; NMeGly(cPent) = CN[C@H](C(=O)O)C1CCCC1; NMeI = CC[C@H](C)[C@H](NC)C(=O)O; NMeD = CN[C@@H](CC(=O)O)C(=O)O; NMeL = CN[C@@H](CC(C)C)C(=O)O; Morpholide = C1CN(*)CCO1; NMeA = CN[C@@H](C)C(=O)O; Ac5c = NC1(C(=O)O)CCCC1; Aze = O=C(O)[C@@H]1CCN1; Sar = CNCC(=O)O
How the values were obtained:
[1] = biological target: GDP-bound KRAS wild-type protein (Homo sapiens, UniProt P01116); test: Binding to KRAS by surface plasmon resonance (SPR), Single Cycle Kinetics; settings: GDP-bound KRAS wild-type protein, read-out: KRAS KD
GDP-bound KRAS wild-type protein, sequence (P01116 whole entry): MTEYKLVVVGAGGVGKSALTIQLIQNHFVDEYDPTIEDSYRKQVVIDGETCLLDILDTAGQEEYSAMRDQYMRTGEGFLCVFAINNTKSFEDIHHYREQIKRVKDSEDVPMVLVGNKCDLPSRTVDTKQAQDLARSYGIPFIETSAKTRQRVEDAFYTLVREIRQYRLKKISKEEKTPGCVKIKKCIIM

[2] = biological target: GDP-bound NRAS wild-type protein (Homo sapiens, UniProt P01111); test: Binding to NRAS by surface plasmon resonance (SPR), Single Cycle Kinetics; settings: SPR, GDP-bound NRAS wild-type protein vs GDP-bound KRAS wild-type protein
GDP-bound NRAS wild-type protein, sequence (P01111 whole entry): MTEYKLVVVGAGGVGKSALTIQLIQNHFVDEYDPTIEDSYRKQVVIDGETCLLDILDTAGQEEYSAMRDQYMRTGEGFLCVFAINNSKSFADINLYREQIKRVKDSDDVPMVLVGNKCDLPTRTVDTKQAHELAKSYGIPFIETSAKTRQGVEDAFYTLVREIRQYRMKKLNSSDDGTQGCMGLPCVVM

[3] = biological target: GDP-bound HRAS wild-type protein (Homo sapiens, UniProt P01112); test: Binding to HRAS by surface plasmon resonance (SPR), Single Cycle Kinetics; settings: SPR, GDP-bound HRAS wild-type protein vs GDP-bound KRAS wild-type protein
GDP-bound HRAS wild-type protein, sequence (P01112 whole entry): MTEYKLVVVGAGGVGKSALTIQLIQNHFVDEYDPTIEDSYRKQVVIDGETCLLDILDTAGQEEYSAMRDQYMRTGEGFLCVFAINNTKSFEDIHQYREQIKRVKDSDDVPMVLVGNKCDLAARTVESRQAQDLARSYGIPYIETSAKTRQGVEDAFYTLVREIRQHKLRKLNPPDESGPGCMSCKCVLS

[4] = SPR Single Cycle Kinetics, 1:1 binding model

| Structure (SMILES) | Kd [1, 4] [nM] | Kd ([1]; SPR, Single Cycle Kinetics) [nM] | NRAS/KRAS (ratio of KD value for NRAS to KD value for KRAS) [2] | HRAS/KRAS (ratio of KD value for HRAS to KD value for KRAS) [3] | NRAS/KRAS (ratio of KD value with respect to NRAS to KD value with respect to KRAS) [2] | HRAS/KRAS (ratio of KD value with respect to HRAS to KD value with respect to KRAS) [3] |
| --- | --- | --- | --- | --- | --- | --- |
| CC[C@H](C)[C@@H]1NC(=O)[C@H](CC(C)C)N(C)C(=O)C[C@@H](C(=O)N2CCOCC2)N(C)C(=O)[C@H](CC(C)C)N(C)C(=O)C2(CCCC2)NC(=O)[C@@H]2CCCN2C(=O)[C@H](CCc2ccc(C(F)(F)F)c(Cl)c2)NC(=O)CN(C)C(=O)[C@H](Cc2ccc(C)cc2)N(CC)C(=O)[C@@H]2CCN2C(=O)[C@H](C)N(C)C1=O [PP0016] ([NMeL]I[NMeA][Aze][NEtPhe(4-Me)][Sar][hPhe(3-Cl-4-CF3)]P[Ac5c][NMeL][NMeD]-Morpholide; lactam N-11) | 1.6 | – | C (A compound having a KD ratio of 0.1 or more and less than 3 is denoted as C) | C (A compound having a KD ratio of 0.1 or more and less than 3 is denoted as C) | – | – |
| CC[C@H](C)[C@@H]1NC(=O)[C@H](CC(C)C)N(C)C(=O)C[C@@H](C(=O)N2CCOCC2)N(C)C(=O)[C@H]([C@@H](C)CC)N(C)C(=O)C2(CCCC2)NC(=O)[C@@H]2CCCN2C(=O)[C@H](CCc2ccc(C(F)(F)F)c(Cl)c2)NC(=O)CN(C)C(=O)[C@H](Cc2ccc(C)cc2)N(CC)C(=O)CN(C)C(=O)CN(C)C1=O [PP0043] ([NMeL]I[Sar][Sar][NEtPhe(4-Me)][Sar][hPhe(3-Cl-4-CF3)]P[Ac5c][NMeI][NMeD]-Morpholide; lactam N-11) | 0.87 | – | C (A compound having a KD ratio of 0.1 or more and less than 3 is denoted as C) | C (A compound having a KD ratio of 0.1 or more and less than 3 is denoted as C) | – | – |

Continued, in another order:

| Kd [1, 4] [nM] | Kd ([1]; SPR, Single Cycle Kinetics) [nM] | Structure (SMILES) | NRAS/KRAS (ratio of KD value for NRAS to KD value for KRAS) [2] | HRAS/KRAS (ratio of KD value for HRAS to KD value for KRAS) [3] | NRAS/KRAS (ratio of KD value with respect to NRAS to KD value with respect to KRAS) [2] | HRAS/KRAS (ratio of KD value with respect to HRAS to KD value with respect to KRAS) [3] |
| --- | --- | --- | --- | --- | --- | --- |
| 0.34 | – | CCCN1C(=O)[C@@H]2CCN2C(=O)CN(C)C(=O)[C@H](C2CC(F)(F)C2)NC(=O)[C@H](CC(C)C)N(C)C(=O)C[C@@H](C(=O)N2CCOCC2)N(C)C(=O)[C@H](C2CCCC2)N(C)C(=O)C2(CCCC2)NC(=O)[C@@H]2CCCN2C(=O)[C@H](CCc2cc(F)c(C(F)(F)F)c(F)c2)NC(=O)CN(C)C(=O)[C@@H]1Cc1ccc(C(F)(F)F)cc1 [PP0787] ([NMeL][X13][Sar][Aze][NPrPhe(4-CF3)][Sar][hPhe(3,5-F2-4-CF3)]P[Ac5c][NMeGly(cPent)][NMeD]-Morpholide; lactam N-11) | – | – | C (A compound having a KD ratio of 0.1 or more and less than 3 is denoted as C) | B (a compound having 3 or more and less than 10 is denoted as B) |
| – | 1.3 | CCC[C@H]1C(=O)N[C@@H](C2CCOCC2)C(=O)N(C)CC(=O)N(C)[C@H]2C/C=C\CCN(C2=O)[C@@H](Cc2ccc(C(F)(F)F)cc2)C(=O)N(C)CC(=O)N[C@@H](CCc2ccc(C(F)(F)F)c(Cl)c2)C(=O)N2C[C@H](OCC)C[C@H]2C(=O)NC2(CC(C)(C)C2)C(=O)N(C)[C@@H](C2CCCC2)C(=O)N(C)[C@H](C(=O)N(C)C)CC(=O)N1C [PP3000] | AA (a compound having 20 or more is denoted as AA) | A (a compound having 10 or more and less than 20 is denoted as A) | – | – |
| – | 1.9 | CCC[C@H]1C(=O)N[C@@H]([C@@H](C)CC)C(=O)N(C)CC(=O)N(C)[C@H]2C/C=C\CCN(C2=O)[C@@H](Cc2ccc(C)cc2)C(=O)N(C)CC(=O)N[C@@H](CCc2ccc(C(F)(F)F)c(OC)c2)C(=O)N2CC3(CC3)C[C@H]2C(=O)NC2(CC(C)(C)C2)C(=O)N(C)[C@@H](CC(F)(F)F)C(=O)N(C)[C@H](C(=O)N(C)C)CC(=O)N1C [PP3012] | A (a compound having 10 or more and less than 20 is denoted as A) | A (a compound having 10 or more and less than 20 is denoted as A) | – | – |
